Species on record: Rattus norvegicus
Test: DrugMatrix - Regimen: Daily Repeat
Type: toxicity, organism-based, Sprague-Dawley
Parameters: regimen Daily Repeat, gender Male, age 6-8 weeks
Conditions: in vivo, po, route oral GAVAGE, […]; for URIC ACID / ALANINE AMINOTRANSFERASE / ALKALINE PHOSPHATASE / ASPARTATE AMINOTRANSFERASE / BLOOD UREA NITROGEN / CARBON DIOXIDE / CHLORIDE / CHOLESTEROL / CREATINE PHOSPHOKINASE / CREATININE / GLUCOSE / LACTATE DEHYDROGENASE / LIPASE / PHOSPHORUS / POTASSIUM / SODIUM / TOTAL BILIRUBIN / TOTAL PROTEIN: tissue Plasma; for ABSOLUTE BASOPHIL / ABSOLUTE EOSINOPHIL / ABSOLUTE LYMPHOCYTE / ABSOLUTE MONOCYTE / ABSOLUTE SEGMENTED NEUTROPHIL / BASOPHIL / EOSINOPHIL / ERYTHROCYTE COUNT / HEMATOCRIT / HEMOGLOBIN / LEUKOCYTE COUNT / LYMPHOCYTE / MEAN CORPUSCULAR HEMOGLOBIN / MEAN CORPUSCULAR HEMOGLOBIN CONCENTRATION / MEAN CORPUSCULAR VOLUME / MONOCYTE / NEUTROPHIL / NUCLEATED RED BLOOD CELLS / PLATELET COUNT: tissue Blood
[1] = 10 mg/kg, 120 h, dose level Low, time 5 day
[2] = 1100 mg/kg, 72 h, dose level High, time 3 day
[3] = 1100 mg/kg, 120 h, dose level High, time 5 day

CCOC(=O)C1=C(C)NC(C)=C(C(=O)OC)C1c1cccc([N+](=O)[O-])c1 (stereo unspecified) [NITRENDIPINE]
URIC ACID (10 mg/kg, 72 h, dose level Low, time 3 day): 0.7 mg/dL | ABSOLUTE BASOPHIL [1]: 0 CELLS/uL | ABSOLUTE EOSINOPHIL [1]: 0 CELLS/uL | ABSOLUTE LYMPHOCYTE [1]: 10446 CELLS/uL | ABSOLUTE MONOCYTE [1]: 116 CELLS/uL | ABSOLUTE SEGMENTED NEUTROPHIL [1]: 1038 CELLS/uL | BASOPHIL [1]: 0% | EOSINOPHIL [1]: 0% | ERYTHROCYTE COUNT [1]: 5.06 x10E6/uL | HEMATOCRIT [1]: 32.77% | HEMOGLOBIN [1]: 12.73 G/DL | LEUKOCYTE COUNT [1]: 11.6 x10E3/uL | LYMPHOCYTE [1]: 90% | MEAN CORPUSCULAR HEMOGLOBIN [1]: 25.2 pg | MEAN CORPUSCULAR HEMOGLOBIN CONCENTRATION [1]: 38.87 G/DL | MEAN CORPUSCULAR VOLUME [1]: 64.8 fL | MONOCYTE [1]: 1% | NEUTROPHIL [1]: 9% | NUCLEATED RED BLOOD CELLS [1]: 0 /100WBC | PLATELET COUNT [1]: 1057 x10E3/uL | ALANINE AMINOTRANSFERASE [1]: 72 u/L | ALKALINE PHOSPHATASE [1]: 422.33 u/L | ASPARTATE AMINOTRANSFERASE [1]: 98 u/L | BLOOD UREA NITROGEN [1]: 15 mg/dL | CARBON DIOXIDE [1]: 32.33 mmol/L | CHLORIDE [1]: 101 MEQ/L | CHOLESTEROL [1]: 70.67 mg/dL | CREATINE PHOSPHOKINASE [1]: 376.67 u/L | CREATININE [1]: 0.17 mg/dL | GLUCOSE [1]: 143 mg/dL | LACTATE DEHYDROGENASE [1]: 166.67 u/L | LIPASE [1]: 9.67 u/L | PHOSPHORUS [1]: 10.6 mg/dL | POTASSIUM [1]: 5.57 MEQ/L | SODIUM [1]: 144.07 MEQ/L | TOTAL BILIRUBIN [1]: 0.23 mg/dL | TOTAL PROTEIN [1]: 6.03 G/DL | URIC ACID [1]: 0.53 mg/dL | ABSOLUTE BASOPHIL [2]: 0 CELLS/uL | ABSOLUTE EOSINOPHIL [2]: 21.67 CELLS/uL | ABSOLUTE LYMPHOCYTE [2]: 8591 CELLS/uL | ABSOLUTE MONOCYTE [2]: 68 CELLS/uL | ABSOLUTE SEGMENTED NEUTROPHIL [2]: 719.33 CELLS/uL | BASOPHIL [2]: 0% | EOSINOPHIL [2]: 0.33% | ERYTHROCYTE COUNT [2]: 5.96 x10E6/uL | HEMATOCRIT [2]: 36.87% | HEMOGLOBIN [2]: 14.27 G/DL | LEUKOCYTE COUNT [2]: 9.4 x10E3/uL | LYMPHOCYTE [2]: 91% | MEAN CORPUSCULAR HEMOGLOBIN [2]: 23.93 pg | MEAN CORPUSCULAR VOLUME [2]: 61.87 fL | MONOCYTE [2]: 0.67% | NEUTROPHIL [2]: 8% | NUCLEATED RED BLOOD CELLS [2]: 0 /100WBC | PLATELET COUNT [2]: 1329.67 x10E3/uL | ALANINE AMINOTRANSFERASE [2]: 96.67 u/L | ALKALINE PHOSPHATASE [2]: 346 u/L | ASPARTATE AMINOTRANSFERASE [2]: 88.67 u/L | BLOOD UREA NITROGEN [2]: 13.33 mg/dL | CARBON DIOXIDE [2]: 30 mmol/L | CHLORIDE [2]: 103.33 MEQ/L | CHOLESTEROL [2]: 57.33 mg/dL | CREATINE PHOSPHOKINASE [2]: 323.33 u/L | CREATININE [2]: 0.14 mg/dL | GLUCOSE [2]: 160 mg/dL | LACTATE DEHYDROGENASE [2]: 142.67 u/L | LIPASE [2]: 9.67 u/L | PHOSPHORUS [2]: 9.8 mg/dL | POTASSIUM [2]: 4.65 MEQ/L | SODIUM [2]: 145.2 MEQ/L | TOTAL BILIRUBIN [2]: 0.2 mg/dL | TOTAL PROTEIN [2]: 5.2 G/DL | URIC ACID [2]: 0.4 mg/dL | ABSOLUTE BASOPHIL [3]: 0 CELLS/uL | ABSOLUTE EOSINOPHIL [3]: 24.33 CELLS/uL | ABSOLUTE LYMPHOCYTE [3]: 5730.33 CELLS/uL | ABSOLUTE MONOCYTE [3]: 63.33 CELLS/uL | ABSOLUTE SEGMENTED NEUTROPHIL [3]: 515.33 CELLS/uL | BASOPHIL [3]: 0% | EOSINOPHIL [3]: 0.33% | ERYTHROCYTE COUNT [3]: 6.09 x10E6/uL | HEMATOCRIT [3]: 37.57% | HEMOGLOBIN [3]: 14.23 G/DL | LEUKOCYTE COUNT [3]: 6.33 x10E3/uL | LYMPHOCYTE [3]: 90.67% | MEAN CORPUSCULAR HEMOGLOBIN [3]: 23.4 pg | MEAN CORPUSCULAR HEMOGLOBIN CONCENTRATION [3]: 37.87 G/DL | MEAN CORPUSCULAR VOLUME [3]: 61.7 fL | MONOCYTE [3]: 1% | NEUTROPHIL [3]: 8% | NUCLEATED RED BLOOD CELLS [3]: 0 /100WBC | PLATELET COUNT [3]: 1353.67 x10E3/uL | ALANINE AMINOTRANSFERASE [3]: 65.67 u/L | ALKALINE PHOSPHATASE [3]: 214.33 u/L | ASPARTATE AMINOTRANSFERASE [3]: 85.67 u/L | BLOOD UREA NITROGEN [3]: 11.67 mg/dL | CARBON DIOXIDE [3]: 29 mmol/L | CHLORIDE [3]: 102.67 MEQ/L | CHOLESTEROL [3]: 58.33 mg/dL | CREATINE PHOSPHOKINASE [3]: 328.33 u/L | CREATININE [3]: 0.15 mg/dL | GLUCOSE [3]: 133.67 mg/dL | LACTATE DEHYDROGENASE [3]: 156.33 u/L | LIPASE [3]: 11.67 u/L | PHOSPHORUS [3]: 8.93 mg/dL | POTASSIUM [3]: 4.8 MEQ/L | SODIUM [3]: 147.07 MEQ/L | TOTAL BILIRUBIN [3]: 0.2 mg/dL | TOTAL PROTEIN [3]: 5.4 G/DL | URIC ACID [3]: 0.47 mg/dL
